{"source": "patent US20170356895A1", "about": "“TOXICANT ASSAYS FOR CONSUMABLE PRODUCTS” (priority 2016, published 2017)", "tested_on": "zebrafish (Danio rerio) AB strain embryos", "experiment": "Acute toxicity testing of extracts using zebrafish embryos (mortality rate after 48 hr exposure)", "type": "in vivo", "conditions": "3.7 mg/L", "protocol": "Extracts prepared as described in Example 1 were tested for acute toxicity using zebrafish (Danio rerio) AB strain embryos. Chicken breast extracts were diluted into zebrafish embryo culture medium at 0.25, 0.50, 1.00, 2.00 and 4.00 μl/ml. Zebrafish AB strain embryos of 4-128 cell stages were exposed to extract dilutions in a 96-well plate at 1 embryo per well. Each concentration was tested with 20 embryos. Zebrafish embryo culture medium and 3.7 mg/L dichloroaniline were included as negative and positive controls, respectively. After 48 hr exposure at 26° C., zebrafish embryos were observed under a stereomicroscope and fish embryos that were coagulated, tail not detached, and having no heart beat were marked as dead. Mortality rate for each concentration was calculated as the acute toxicity endpoint. The mortality rate for the negative control was 0% and for the positive control was 65%.\nThe acute toxicity of milk powder extracts prepared as described in Example 4 were tested for acute toxicity using zebrafish (Danio rerio) AB strain embryos. Milk powder extracts were diluted into zebrafish embryo culture medium at 0.33, 0.50, 0.76, 1.74 and 4.00 μl/ml. Zebrafish AB strain embryos of 4-128 cell stages were exposed to extract dilutions in a 96-well plate with 1 embryo per well. […] Mortality rate of each concentration was calculated as the acute toxicity endpoint. […]", "data": [{"smiles": "Nc1ccc(Cl)c(Cl)c1", "note": "[3,4-dichloroaniline]", "values": [{"measurement": "Mortality rate for positive control", "setting": "48-hr exposure at 26° C., Example 5 (milk powder test)", "result": 60, "unit": "%"}, {"measurement": "Mortality rate for the positive control", "setting": "48 hr exposure at 26° C., Example 2 (chicken breast test)", "result": 65, "unit": "%"}]}]}
